Test results taken from PMC10599993, “The PTPN2/PTPN1 inhibitor ABBV-CLS-484 unleashes potent anti-tumour immunity” (Nature, 2023).

Tests used:
Experiment in all cases: biochemical
Design in all cases: Kinase selectivity panel, IC50 of AC484 (Supplementary Table 1)
LYN-B = target: T1, LYN-B (Homo sapiens, UniProt P07948)
T1 construct: isoform B

DDR1 = DDR1 (Homo sapiens, UniProt Q08345)
BMX = BMX (Homo sapiens, UniProt P51813)
RET = RET (Homo sapiens, UniProt P07949)
STK16 = STK16 (Homo sapiens, UniProt O75716)
PKCepsilon = target: T2, PKCepsilon (Homo sapiens, UniProt Q02156)
T2 construct: gene PRKCE

BRAF = BRAF (Homo sapiens, UniProt P15056)
Fyn = Fyn (Homo sapiens, UniProt P06241)
_PKCtheta = target: T3, _PKCtheta (Homo sapiens, UniProt Q04759)
T3 construct: gene PRKCQ

TXK = TXK (Homo sapiens, UniProt P42681)
ITK = ITK (Homo sapiens, UniProt Q08881)
Syk = Syk (Homo sapiens, UniProt P43405)
CLK2 = CLK2 (Homo sapiens, UniProt P49760)
Ck1alpha1 = target: T4, Ck1alpha1 (Homo sapiens, UniProt P48729)
T4 construct: gene CSNK1A1

IGF1R = IGF1R (Homo sapiens, UniProt P08069)
MEK1 = target: T5, MEK1 (Homo sapiens, UniProt Q02750)
T5 construct: gene MAP2K1

Plk3 = Plk3 (Homo sapiens, UniProt Q9H4B4)
ALK = ALK (Homo sapiens, UniProt Q9UM73)
MAP3K10 = MAP3K10 (Homo sapiens, UniProt Q02779)
PAK4KD = target: T6, PAK4KD (Homo sapiens, UniProt O96013)
T6 construct: gene PAK4; kinase domain

MAP4K3 = MAP4K3 (Homo sapiens, UniProt Q8IVH8)
PKG1A = target: T7, PKG1A (Homo sapiens, UniProt Q13976)
T7 construct: gene PRKG1; isoform 1 alpha

MAP4K4 = MAP4K4 (Homo sapiens, UniProt O95819)
Pim1 = Pim1 (Homo sapiens, UniProt P11309)
Src = Src (Homo sapiens, UniProt P12931)
JAK3 = JAK3 (Homo sapiens, UniProt P52333)
JAK2 = JAK2 (Homo sapiens, UniProt O60674)
Zipk = target: T8, Zipk (Homo sapiens, UniProt O43293)
T8 construct: gene DAPK3

ErbB2 = ErbB2 (Homo sapiens, UniProt P04626)

Measured: IC50

Chain of ErbB2 (P04626 whole entry): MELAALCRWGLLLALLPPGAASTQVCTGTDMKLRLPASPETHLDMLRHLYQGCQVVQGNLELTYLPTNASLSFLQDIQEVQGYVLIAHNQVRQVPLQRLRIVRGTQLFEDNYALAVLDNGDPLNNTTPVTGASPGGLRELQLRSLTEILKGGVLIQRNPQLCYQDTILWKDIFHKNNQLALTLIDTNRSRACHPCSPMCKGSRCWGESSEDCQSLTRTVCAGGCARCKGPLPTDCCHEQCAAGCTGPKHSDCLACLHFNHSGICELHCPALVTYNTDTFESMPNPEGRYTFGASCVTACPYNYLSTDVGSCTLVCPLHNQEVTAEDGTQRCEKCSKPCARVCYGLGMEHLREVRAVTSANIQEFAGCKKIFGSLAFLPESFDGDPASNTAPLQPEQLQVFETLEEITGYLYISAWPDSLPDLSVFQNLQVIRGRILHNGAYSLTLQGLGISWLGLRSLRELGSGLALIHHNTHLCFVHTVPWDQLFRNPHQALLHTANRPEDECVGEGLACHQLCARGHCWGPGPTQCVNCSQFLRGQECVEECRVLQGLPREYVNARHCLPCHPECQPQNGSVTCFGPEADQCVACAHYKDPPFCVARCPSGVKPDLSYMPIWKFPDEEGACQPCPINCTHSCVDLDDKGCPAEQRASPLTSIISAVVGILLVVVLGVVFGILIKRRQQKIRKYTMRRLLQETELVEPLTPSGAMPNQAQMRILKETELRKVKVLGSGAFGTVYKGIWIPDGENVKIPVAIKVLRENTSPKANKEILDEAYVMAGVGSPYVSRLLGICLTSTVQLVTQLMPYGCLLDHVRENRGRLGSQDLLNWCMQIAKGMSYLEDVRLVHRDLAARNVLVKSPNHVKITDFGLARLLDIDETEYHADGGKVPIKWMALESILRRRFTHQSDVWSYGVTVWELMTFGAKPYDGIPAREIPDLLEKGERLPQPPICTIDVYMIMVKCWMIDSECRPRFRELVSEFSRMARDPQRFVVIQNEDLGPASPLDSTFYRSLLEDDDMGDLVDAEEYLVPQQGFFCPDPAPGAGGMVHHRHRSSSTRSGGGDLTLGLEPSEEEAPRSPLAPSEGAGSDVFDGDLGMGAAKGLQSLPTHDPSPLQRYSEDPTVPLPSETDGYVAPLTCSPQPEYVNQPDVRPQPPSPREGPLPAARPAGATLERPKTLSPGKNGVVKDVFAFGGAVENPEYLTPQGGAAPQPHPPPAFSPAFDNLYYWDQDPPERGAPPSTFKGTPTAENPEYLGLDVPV
T3 sequence (Q04759 whole entry): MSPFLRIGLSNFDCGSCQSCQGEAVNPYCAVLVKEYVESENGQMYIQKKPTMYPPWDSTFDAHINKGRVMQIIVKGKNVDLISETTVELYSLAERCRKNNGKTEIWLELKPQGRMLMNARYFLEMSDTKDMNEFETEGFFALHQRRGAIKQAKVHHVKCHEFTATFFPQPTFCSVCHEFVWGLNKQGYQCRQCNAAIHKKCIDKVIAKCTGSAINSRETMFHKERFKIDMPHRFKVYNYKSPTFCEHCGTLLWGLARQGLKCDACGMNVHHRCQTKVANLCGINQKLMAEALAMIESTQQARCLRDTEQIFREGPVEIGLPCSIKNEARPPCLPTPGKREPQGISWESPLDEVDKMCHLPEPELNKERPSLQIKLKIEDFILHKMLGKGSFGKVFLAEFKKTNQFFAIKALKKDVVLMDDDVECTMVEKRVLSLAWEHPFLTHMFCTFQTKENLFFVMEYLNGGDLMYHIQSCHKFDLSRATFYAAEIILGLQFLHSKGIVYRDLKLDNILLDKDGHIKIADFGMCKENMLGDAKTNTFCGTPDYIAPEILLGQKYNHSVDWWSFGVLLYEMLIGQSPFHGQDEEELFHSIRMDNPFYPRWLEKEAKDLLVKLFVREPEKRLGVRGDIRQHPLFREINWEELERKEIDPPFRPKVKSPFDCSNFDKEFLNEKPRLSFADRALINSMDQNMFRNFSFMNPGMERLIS
Chain of BRAF (P15056 whole entry): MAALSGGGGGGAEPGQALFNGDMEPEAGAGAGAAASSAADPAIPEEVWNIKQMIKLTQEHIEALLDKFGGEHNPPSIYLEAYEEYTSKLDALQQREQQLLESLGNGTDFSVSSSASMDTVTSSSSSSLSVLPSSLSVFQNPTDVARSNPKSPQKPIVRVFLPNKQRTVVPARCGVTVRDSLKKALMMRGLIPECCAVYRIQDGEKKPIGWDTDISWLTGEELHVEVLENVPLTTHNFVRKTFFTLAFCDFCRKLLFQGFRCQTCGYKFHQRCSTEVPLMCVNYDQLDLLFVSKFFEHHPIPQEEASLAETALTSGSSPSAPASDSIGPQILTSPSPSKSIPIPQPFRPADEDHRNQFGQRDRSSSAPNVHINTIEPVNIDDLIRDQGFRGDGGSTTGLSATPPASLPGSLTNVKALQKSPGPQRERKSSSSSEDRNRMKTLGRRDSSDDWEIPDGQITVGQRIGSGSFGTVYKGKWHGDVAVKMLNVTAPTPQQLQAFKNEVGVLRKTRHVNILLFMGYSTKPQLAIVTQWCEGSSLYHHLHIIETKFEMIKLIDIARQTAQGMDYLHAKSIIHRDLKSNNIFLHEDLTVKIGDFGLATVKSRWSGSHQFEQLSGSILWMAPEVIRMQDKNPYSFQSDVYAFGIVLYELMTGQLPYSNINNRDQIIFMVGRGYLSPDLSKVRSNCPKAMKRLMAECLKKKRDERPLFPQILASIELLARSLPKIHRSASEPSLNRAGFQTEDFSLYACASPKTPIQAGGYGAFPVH
Chain of CLK2 (P49760 whole entry): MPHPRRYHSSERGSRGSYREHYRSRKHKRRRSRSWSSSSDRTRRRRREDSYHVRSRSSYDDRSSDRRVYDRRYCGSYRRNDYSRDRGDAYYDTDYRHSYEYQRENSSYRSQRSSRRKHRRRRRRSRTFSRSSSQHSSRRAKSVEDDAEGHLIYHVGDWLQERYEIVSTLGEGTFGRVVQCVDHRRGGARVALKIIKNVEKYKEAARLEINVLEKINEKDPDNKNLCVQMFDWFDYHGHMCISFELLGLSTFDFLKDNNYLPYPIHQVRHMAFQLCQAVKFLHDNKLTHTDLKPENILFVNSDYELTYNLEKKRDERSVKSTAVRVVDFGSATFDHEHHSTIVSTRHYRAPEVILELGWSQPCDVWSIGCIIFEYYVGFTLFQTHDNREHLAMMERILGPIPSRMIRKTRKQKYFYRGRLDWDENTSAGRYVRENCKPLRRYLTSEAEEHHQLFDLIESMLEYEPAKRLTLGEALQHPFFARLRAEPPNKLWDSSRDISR
Chain of ALK (Q9UM73 whole entry): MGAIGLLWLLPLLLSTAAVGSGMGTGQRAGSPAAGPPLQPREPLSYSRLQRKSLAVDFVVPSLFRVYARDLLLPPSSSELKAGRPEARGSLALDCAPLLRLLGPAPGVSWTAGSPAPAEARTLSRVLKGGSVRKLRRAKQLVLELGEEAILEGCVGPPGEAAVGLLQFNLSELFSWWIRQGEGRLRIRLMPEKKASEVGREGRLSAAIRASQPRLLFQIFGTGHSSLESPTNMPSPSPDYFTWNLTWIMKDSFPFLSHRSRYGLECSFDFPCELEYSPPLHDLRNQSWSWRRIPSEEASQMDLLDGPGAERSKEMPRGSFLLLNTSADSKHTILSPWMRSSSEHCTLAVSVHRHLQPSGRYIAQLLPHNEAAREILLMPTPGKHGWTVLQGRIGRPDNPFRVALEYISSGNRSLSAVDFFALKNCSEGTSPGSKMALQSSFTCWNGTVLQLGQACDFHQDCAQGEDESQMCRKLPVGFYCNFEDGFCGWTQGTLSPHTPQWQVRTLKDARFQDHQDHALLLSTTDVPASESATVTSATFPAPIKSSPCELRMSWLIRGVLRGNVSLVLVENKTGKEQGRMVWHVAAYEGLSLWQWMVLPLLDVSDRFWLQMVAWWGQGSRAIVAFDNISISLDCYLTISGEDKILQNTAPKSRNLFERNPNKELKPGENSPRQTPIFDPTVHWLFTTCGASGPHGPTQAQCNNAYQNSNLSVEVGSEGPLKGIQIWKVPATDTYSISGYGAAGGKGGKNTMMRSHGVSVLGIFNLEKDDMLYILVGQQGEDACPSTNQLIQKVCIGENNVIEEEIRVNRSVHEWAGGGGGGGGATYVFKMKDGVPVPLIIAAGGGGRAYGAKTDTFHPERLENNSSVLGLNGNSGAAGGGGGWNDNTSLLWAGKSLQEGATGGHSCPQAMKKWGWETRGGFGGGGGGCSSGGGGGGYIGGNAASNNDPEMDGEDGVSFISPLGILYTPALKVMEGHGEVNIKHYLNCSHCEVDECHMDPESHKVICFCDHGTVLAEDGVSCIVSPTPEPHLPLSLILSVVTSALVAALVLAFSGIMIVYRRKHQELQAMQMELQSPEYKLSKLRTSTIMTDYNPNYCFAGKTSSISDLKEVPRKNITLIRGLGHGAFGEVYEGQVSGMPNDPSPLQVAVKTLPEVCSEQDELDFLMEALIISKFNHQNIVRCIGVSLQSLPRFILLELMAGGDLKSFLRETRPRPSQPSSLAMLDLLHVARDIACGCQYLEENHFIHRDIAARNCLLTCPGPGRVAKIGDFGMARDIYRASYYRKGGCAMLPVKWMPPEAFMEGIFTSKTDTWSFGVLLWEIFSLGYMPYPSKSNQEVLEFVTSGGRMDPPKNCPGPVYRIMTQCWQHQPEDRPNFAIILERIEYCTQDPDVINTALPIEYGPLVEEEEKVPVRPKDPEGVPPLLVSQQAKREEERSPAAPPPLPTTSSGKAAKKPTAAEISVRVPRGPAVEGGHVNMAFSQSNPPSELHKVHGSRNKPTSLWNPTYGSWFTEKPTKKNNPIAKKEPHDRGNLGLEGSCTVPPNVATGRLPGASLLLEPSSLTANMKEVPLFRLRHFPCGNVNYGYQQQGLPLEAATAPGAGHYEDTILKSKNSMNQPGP

CC(C)CCN[C@@H]1CCc2cc(O)c(N3CC(=O)NS3(=O)=O)c(F)c2C1 [AC484, ABBV-CLS-484]
> 10 µM: all assays above
